Measurements reported in the NIST ThermoML archive (doi:10.1016/j.jct.2015.08.014).
± gives the expanded uncertainty stated by the source.

Experiment: xn = mol fraction of the nth substance listed
Details: 303.15 K, 100 kPa, Liquid, Alternating current cell with electrodes

CCCC[N+]1(C)CCCC1.N#CN=C=[N-] [1-butyl-1-methylpyrrolidinium dicyanamide] + O=C1CCCO1
Details | electrical conductivity [S/m]
Frequency=0.00347222 MHz, x1 = 0.4985 | 2.33 ± 0.024
Frequency=0.00347222 MHz, x1 = 0.6954 | 1.912 ± 0.019
Frequency=0.00347222 MHz, x1 = 0.9013 | 1.607 ± 0.016
Frequency=0.00347222 MHz, x1 = 1 | 1.527 ± 0.015
Frequency=0.004 MHz, x1 = 0.0463 | 1.58 ± 0.028
Frequency=0.004 MHz, x1 = 0.0987 | 2.38 ± 0.03
Frequency=0.004 MHz, x1 = 0.1449 | 2.71 ± 0.029
Frequency=0.004 MHz, x1 = 0.1859 | 2.9 ± 0.029
Frequency=0.004 MHz, x1 = 0.2493 | 2.85 ± 0.029
Frequency=0.004 MHz, x1 = 0.3029 | 2.79 ± 0.028
Frequency=0.004 MHz, x1 = 0.3845 | 2.618 ± 0.026
Frequency=0.004 MHz, x1 = 0.4985 | 2.33 ± 0.024
Frequency=0.004 MHz, x1 = 0.6954 | 1.912 ± 0.019
Frequency=0.004 MHz, x1 = 0.9013 | 1.607 ± 0.016
Frequency=0.004 MHz, x1 = 1 | 1.527 ± 0.015
Frequency=0.00446429 MHz, x1 = 0.0463 | 1.58 ± 0.028
Frequency=0.00446429 MHz, x1 = 0.0987 | 2.38 ± 0.03
Frequency=0.00446429 MHz, x1 = 0.1449 | 2.71 ± 0.029
Frequency=0.00446429 MHz, x1 = 0.1859 | 2.9 ± 0.029
Frequency=0.00446429 MHz, x1 = 0.2493 | 2.85 ± 0.029
Frequency=0.00446429 MHz, x1 = 0.3029 | 2.79 ± 0.028
Frequency=0.00446429 MHz, x1 = 0.3845 | 2.618 ± 0.026
Frequency=0.00446429 MHz, x1 = 0.4985 | 2.33 ± 0.024
Frequency=0.00446429 MHz, x1 = 0.6954 | 1.912 ± 0.019
Frequency=0.00446429 MHz, x1 = 0.9013 | 1.608 ± 0.016
Frequency=0.00446429 MHz, x1 = 1 | 1.527 ± 0.015
Frequency=0.005 MHz, x1 = 0.0463 | 1.58 ± 0.028
Frequency=0.005 MHz, x1 = 0.0987 | 2.38 ± 0.03
Frequency=0.005 MHz, x1 = 0.1449 | 2.71 ± 0.029
Frequency=0.005 MHz, x1 = 0.1859 | 2.9 ± 0.029
Frequency=0.005 MHz, x1 = 0.2493 | 2.85 ± 0.029
Frequency=0.005 MHz, x1 = 0.3029 | 2.79 ± 0.028
Frequency=0.005 MHz, x1 = 0.3845 | 2.618 ± 0.026
Frequency=0.005 MHz, x1 = 0.4985 | 2.33 ± 0.024
Frequency=0.005 MHz, x1 = 0.6954 | 1.912 ± 0.019
Frequency=0.005 MHz, x1 = 0.9013 | 1.608 ± 0.016
Frequency=0.005 MHz, x1 = 1 | 1.527 ± 0.015
Frequency=0.005454 MHz, x1 = 0.0463 | 1.58 ± 0.028
Frequency=0.005454 MHz, x1 = 0.0987 | 2.38 ± 0.03
Frequency=0.005454 MHz, x1 = 0.1449 | 2.71 ± 0.029
Frequency=0.005454 MHz, x1 = 0.1859 | 2.9 ± 0.029
Frequency=0.005454 MHz, x1 = 0.2493 | 2.86 ± 0.029
Frequency=0.005454 MHz, x1 = 0.3029 | 2.79 ± 0.028
Frequency=0.005454 MHz, x1 = 0.3845 | 2.619 ± 0.026
Frequency=0.005454 MHz, x1 = 0.4985 | 2.33 ± 0.024
Frequency=0.005454 MHz, x1 = 0.6954 | 1.912 ± 0.019
Frequency=0.005454 MHz, x1 = 0.9013 | 1.608 ± 0.016
Frequency=0.005454 MHz, x1 = 1 | 1.527 ± 0.015
Frequency=0.006 MHz, x1 = 0.0463 | 1.58 ± 0.028
Frequency=0.006 MHz, x1 = 0.0987 | 2.38 ± 0.03
Frequency=0.006 MHz, x1 = 0.1449 | 2.71 ± 0.029
Frequency=0.006 MHz, x1 = 0.1859 | 2.9 ± 0.029
Frequency=0.006 MHz, x1 = 0.2493 | 2.86 ± 0.029
Frequency=0.006 MHz, x1 = 0.3029 | 2.79 ± 0.028
Frequency=0.006 MHz, x1 = 0.3845 | 2.619 ± 0.026
Frequency=0.006 MHz, x1 = 0.4985 | 2.33 ± 0.024
Frequency=0.006 MHz, x1 = 0.6954 | 1.912 ± 0.019
Frequency=0.006 MHz, x1 = 0.9013 | 1.608 ± 0.016
Frequency=0.006 MHz, x1 = 1 | 1.527 ± 0.015
Frequency=0.00652174 MHz, x1 = 0.0463 | 1.58 ± 0.028
Frequency=0.00652174 MHz, x1 = 0.0987 | 2.38 ± 0.03
Frequency=0.00652174 MHz, x1 = 0.1449 | 2.71 ± 0.029
Frequency=0.00652174 MHz, x1 = 0.1859 | 2.9 ± 0.029
Frequency=0.00652174 MHz, x1 = 0.2493 | 2.86 ± 0.029
Frequency=0.00652174 MHz, x1 = 0.3029 | 2.79 ± 0.028
Frequency=0.00652174 MHz, x1 = 0.3845 | 2.619 ± 0.026
Frequency=0.00652174 MHz, x1 = 0.4985 | 2.33 ± 0.024
Frequency=0.00652174 MHz, x1 = 0.6954 | 1.913 ± 0.019
Frequency=0.00652174 MHz, x1 = 0.9013 | 1.608 ± 0.016
Frequency=0.00652174 MHz, x1 = 1 | 1.527 ± 0.015
Frequency=0.00694444 MHz, x1 = 0.0463 | 1.58 ± 0.028
Frequency=0.00694444 MHz, x1 = 0.0987 | 2.38 ± 0.03
Frequency=0.00694444 MHz, x1 = 0.1449 | 2.71 ± 0.029
Frequency=0.00694444 MHz, x1 = 0.1859 | 2.901 ± 0.029
Frequency=0.00694444 MHz, x1 = 0.2493 | 2.86 ± 0.029
Frequency=0.00694444 MHz, x1 = 0.3029 | 2.79 ± 0.028
Frequency=0.00694444 MHz, x1 = 0.3845 | 2.619 ± 0.026
Frequency=0.00694444 MHz, x1 = 0.4985 | 2.33 ± 0.024
Frequency=0.00694444 MHz, x1 = 0.6954 | 1.913 ± 0.019
Frequency=0.00694444 MHz, x1 = 0.9013 | 1.608 ± 0.016
Frequency=0.00694444 MHz, x1 = 1 | 1.527 ± 0.015
Frequency=0.0075 MHz, x1 = 0.0463 | 1.58 ± 0.028
Frequency=0.0075 MHz, x1 = 0.0987 | 2.38 ± 0.03
Frequency=0.0075 MHz, x1 = 0.1449 | 2.71 ± 0.029
Frequency=0.0075 MHz, x1 = 0.1859 | 2.901 ± 0.029
Frequency=0.0075 MHz, x1 = 0.2493 | 2.86 ± 0.029
Frequency=0.0075 MHz, x1 = 0.3029 | 2.79 ± 0.028
Frequency=0.0075 MHz, x1 = 0.3845 | 2.619 ± 0.026
Frequency=0.0075 MHz, x1 = 0.4985 | 2.33 ± 0.024
Frequency=0.0075 MHz, x1 = 0.6954 | 1.913 ± 0.019
Frequency=0.0075 MHz, x1 = 0.9013 | 1.608 ± 0.016
Frequency=0.0075 MHz, x1 = 1 | 1.527 ± 0.015
Frequency=0.008 MHz, x1 = 0.0463 | 1.58 ± 0.028
Frequency=0.008 MHz, x1 = 0.0987 | 2.38 ± 0.03
Frequency=0.008 MHz, x1 = 0.1449 | 2.71 ± 0.029
Frequency=0.008 MHz, x1 = 0.1859 | 2.902 ± 0.029
Frequency=0.008 MHz, x1 = 0.2493 | 2.86 ± 0.029
Frequency=0.008 MHz, x1 = 0.3029 | 2.79 ± 0.028
Frequency=0.008 MHz, x1 = 0.3845 | 2.62 ± 0.026
Frequency=0.008 MHz, x1 = 0.4985 | 2.33 ± 0.024
Frequency=0.008 MHz, x1 = 0.6954 | 1.913 ± 0.019
Frequency=0.008 MHz, x1 = 0.9013 | 1.608 ± 0.016
Frequency=0.008 MHz, x1 = 1 | 1.527 ± 0.015
Frequency=0.00857143 MHz, x1 = 0.0463 | 1.58 ± 0.028
Frequency=0.00857143 MHz, x1 = 0.0987 | 2.38 ± 0.03
Frequency=0.00857143 MHz, x1 = 0.1449 | 2.71 ± 0.029
Frequency=0.00857143 MHz, x1 = 0.1859 | 2.902 ± 0.029
